# Assay results: patent US10844077B2, “Thiazolyl-containing compounds for treating proliferative diseases” (Dana-Farber Cancer Institute, Inc., priority 2014, dated 2020)
# Several values for one entry are separate records, joined by “and”; a condition that tells them apart may be missing. Equal entries are not always repeated. Where two headings read alike, the source gives them in different places.
# Legend:
# broad panel of kinases [1] = biological target: broad panel of kinases (Homo sapiens, UniProt P23458); format: binding; conditions: 1 μM
# broad panel of kinases [2] = biological target: broad panel of kinases (Homo sapiens, UniProt P10721, A829P); format: binding; conditions: KIT(A829P); 1 μM
# broad panel of kinases [3] = biological target: broad panel of kinases (Homo sapiens, UniProt Q12851); format: binding; conditions: MAP4K2; 1 μM
# broad panel of kinases [4] = biological target: broad panel of kinases (Homo sapiens, UniProt P07948); format: binding; conditions: LYN; 1 μM
# broad panel of kinases [5] = biological target: broad panel of kinases (Homo sapiens, UniProt Q9UL54); format: binding; conditions: TAOK2; 1 μM
# broad panel of kinases [6] = biological target: broad panel of kinases (Homo sapiens, UniProt Q8IYT8); format: binding; conditions: ULK2; 1 μM
# GCK = GCK (Homo sapiens (Human), UniProt Q12851); assay: KINATIV assay; format: cell-based; conditions: 1 μM, 90 minutes, BCWM.1 cells
# Chain of GCK (Q12851 whole entry): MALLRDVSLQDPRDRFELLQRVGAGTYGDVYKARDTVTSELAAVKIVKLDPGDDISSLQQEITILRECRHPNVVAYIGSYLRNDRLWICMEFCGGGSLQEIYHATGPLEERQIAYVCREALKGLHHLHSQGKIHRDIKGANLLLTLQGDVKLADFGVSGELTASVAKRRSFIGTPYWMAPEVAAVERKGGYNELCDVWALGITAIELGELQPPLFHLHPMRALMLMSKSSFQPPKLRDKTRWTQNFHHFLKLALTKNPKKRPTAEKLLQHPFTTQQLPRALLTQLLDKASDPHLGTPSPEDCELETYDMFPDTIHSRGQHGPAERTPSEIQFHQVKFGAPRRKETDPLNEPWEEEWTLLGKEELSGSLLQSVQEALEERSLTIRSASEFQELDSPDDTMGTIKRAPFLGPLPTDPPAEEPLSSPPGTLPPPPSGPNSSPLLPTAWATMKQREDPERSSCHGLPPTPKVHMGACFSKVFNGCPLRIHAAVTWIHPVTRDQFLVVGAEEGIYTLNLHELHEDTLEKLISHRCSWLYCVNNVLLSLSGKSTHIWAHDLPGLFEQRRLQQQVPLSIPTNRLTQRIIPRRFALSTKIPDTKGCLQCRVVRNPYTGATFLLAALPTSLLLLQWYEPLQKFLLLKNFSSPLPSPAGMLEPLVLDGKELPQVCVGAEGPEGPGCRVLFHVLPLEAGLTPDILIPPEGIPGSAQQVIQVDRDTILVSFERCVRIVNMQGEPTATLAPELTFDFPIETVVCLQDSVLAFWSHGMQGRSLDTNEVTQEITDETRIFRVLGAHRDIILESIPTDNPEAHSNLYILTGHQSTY
# How it was run: (§1)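 Chemoproteomic format: endogenous kinases in cell lysate were tagged by an ATP-biotin probe and quantitated by ACTIVX.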
# FER = FER (Homo sapiens (Human), UniProt P16591); assay: KINATIV assay; format: cell-based; conditions: 1 μM, 90 minutes, BCWM.1 cells
# How it was run: as §1
# SMG1 = SMG1 (Homo sapiens (Human), UniProt Q96Q15); assay: KINATIV assay; format: cell-based; conditions: 1 μM, 90 minutes, BCWM.1 cells
# How it was run: as §1
# MAP2K5 = MAP2K5 (Homo sapiens (Human), UniProt Q13163); assay: KINATIV assay; format: cell-based; conditions: 1 μM, 90 minutes, BCWM.1 cells
# Chain of MAP2K5 (Q13163 whole entry): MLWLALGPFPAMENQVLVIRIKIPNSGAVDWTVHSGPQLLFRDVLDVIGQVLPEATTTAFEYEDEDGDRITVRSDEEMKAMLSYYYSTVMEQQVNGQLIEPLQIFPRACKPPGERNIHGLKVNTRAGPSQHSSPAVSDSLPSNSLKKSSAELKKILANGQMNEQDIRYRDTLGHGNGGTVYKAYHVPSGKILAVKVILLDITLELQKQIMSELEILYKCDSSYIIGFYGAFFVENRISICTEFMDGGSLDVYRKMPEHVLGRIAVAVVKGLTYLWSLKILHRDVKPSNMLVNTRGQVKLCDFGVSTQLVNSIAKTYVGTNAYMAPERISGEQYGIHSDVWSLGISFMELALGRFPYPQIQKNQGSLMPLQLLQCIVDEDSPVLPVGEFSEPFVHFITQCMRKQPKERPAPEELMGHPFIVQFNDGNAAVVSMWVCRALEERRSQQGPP
# How it was run: as §1
# LOK = LOK (Homo sapiens (Human), UniProt O94804); assay: KINATIV assay; format: cell-based; conditions: 1 μM, 90 minutes, BCWM.1 cells
# How it was run: as §1
# PIK3C3 = PIK3C3 (Homo sapiens (Human), UniProt Q8NEB9); assay: KINATIV assay; format: cell-based; conditions: 1 μM, 90 minutes, BCWM.1 cells
# Chain of PIK3C3 (Q8NEB9 whole entry): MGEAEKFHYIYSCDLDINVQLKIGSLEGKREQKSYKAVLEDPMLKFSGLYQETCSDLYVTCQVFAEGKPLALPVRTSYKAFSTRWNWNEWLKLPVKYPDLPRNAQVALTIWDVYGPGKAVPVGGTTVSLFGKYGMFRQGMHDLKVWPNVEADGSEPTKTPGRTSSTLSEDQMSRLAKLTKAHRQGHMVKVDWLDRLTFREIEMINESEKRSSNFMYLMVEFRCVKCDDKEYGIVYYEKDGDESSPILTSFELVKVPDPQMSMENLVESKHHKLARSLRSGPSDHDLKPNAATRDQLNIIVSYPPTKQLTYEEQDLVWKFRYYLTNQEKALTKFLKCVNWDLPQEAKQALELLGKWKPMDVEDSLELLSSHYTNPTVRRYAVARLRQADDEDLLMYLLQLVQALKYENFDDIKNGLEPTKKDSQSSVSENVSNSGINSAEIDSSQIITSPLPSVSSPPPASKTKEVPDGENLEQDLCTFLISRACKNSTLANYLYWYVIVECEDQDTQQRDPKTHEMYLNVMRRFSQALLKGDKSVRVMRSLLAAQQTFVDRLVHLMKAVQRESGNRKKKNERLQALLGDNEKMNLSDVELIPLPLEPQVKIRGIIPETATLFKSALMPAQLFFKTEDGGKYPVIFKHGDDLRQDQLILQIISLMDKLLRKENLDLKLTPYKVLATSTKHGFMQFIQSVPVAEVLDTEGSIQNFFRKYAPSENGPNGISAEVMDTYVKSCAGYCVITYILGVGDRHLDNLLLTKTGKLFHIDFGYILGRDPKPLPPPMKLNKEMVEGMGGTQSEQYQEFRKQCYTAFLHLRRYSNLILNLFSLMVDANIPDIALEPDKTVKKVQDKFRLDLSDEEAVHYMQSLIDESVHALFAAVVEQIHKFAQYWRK
# How it was run: as §1
# CHK1 = CHK1 (Homo sapiens (Human), UniProt O14757); assay: KINATIV assay; format: cell-based; conditions: 1 μM, 90 minutes, BCWM.1 cells
# How it was run: as §1
# MAP2K4 = MAP2K4 (Homo sapiens (Human), UniProt P45985); assay: KINATIV assay; format: cell-based; conditions: 1 μM, 90 minutes, BCWM.1 cells
# Chain of MAP2K4 (P45985 whole entry): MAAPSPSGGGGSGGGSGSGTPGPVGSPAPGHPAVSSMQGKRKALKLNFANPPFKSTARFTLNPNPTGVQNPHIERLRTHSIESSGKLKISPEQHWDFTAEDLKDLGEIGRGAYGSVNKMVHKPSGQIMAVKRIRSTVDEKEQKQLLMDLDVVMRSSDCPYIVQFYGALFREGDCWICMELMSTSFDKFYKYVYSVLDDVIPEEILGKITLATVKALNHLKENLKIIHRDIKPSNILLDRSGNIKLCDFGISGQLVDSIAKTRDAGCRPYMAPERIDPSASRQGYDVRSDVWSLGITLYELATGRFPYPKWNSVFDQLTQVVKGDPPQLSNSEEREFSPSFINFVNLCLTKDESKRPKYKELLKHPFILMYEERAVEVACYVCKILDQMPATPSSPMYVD
# How it was run: as §1
# RSK1 domain 1 = RSK1 domain 1 (Homo sapiens (Human), UniProt Q15418); assay: KINATIV assay; format: cell-based; conditions: 1 μM, 90 minutes, BCWM.1 cells
# How it was run: as §1
# MAP2K3 = MAP2K3 (Homo sapiens (Human), UniProt P46734); assay: KINATIV assay; format: cell-based; conditions: 1 μM, 90 minutes, BCWM.1 cells
# How it was run: as §1
# CDK5 = CDK5 (Homo sapiens (Human), UniProt Q00535); assay: KINATIV assay; format: cell-based; conditions: 1 μM, 90 minutes, BCWM.1 cells
# Chain of CDK5 (Q00535 whole entry): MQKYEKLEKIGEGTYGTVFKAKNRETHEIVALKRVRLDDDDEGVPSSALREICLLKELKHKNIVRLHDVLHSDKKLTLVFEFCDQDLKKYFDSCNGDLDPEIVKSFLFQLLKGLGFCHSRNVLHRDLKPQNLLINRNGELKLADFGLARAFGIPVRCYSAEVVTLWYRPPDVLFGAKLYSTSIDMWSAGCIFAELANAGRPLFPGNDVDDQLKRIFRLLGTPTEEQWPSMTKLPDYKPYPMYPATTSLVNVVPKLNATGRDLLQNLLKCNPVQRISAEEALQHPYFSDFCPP
# How it was run: as §1
# IRAK4 = IRAK4 (Homo sapiens (Human), UniProt Q9NWZ3); assay: KINATIV assay; format: cell-based; conditions: 1 μM, 90 minutes, BCWM.1 cells
# Chain of IRAK4 (Q9NWZ3 whole entry): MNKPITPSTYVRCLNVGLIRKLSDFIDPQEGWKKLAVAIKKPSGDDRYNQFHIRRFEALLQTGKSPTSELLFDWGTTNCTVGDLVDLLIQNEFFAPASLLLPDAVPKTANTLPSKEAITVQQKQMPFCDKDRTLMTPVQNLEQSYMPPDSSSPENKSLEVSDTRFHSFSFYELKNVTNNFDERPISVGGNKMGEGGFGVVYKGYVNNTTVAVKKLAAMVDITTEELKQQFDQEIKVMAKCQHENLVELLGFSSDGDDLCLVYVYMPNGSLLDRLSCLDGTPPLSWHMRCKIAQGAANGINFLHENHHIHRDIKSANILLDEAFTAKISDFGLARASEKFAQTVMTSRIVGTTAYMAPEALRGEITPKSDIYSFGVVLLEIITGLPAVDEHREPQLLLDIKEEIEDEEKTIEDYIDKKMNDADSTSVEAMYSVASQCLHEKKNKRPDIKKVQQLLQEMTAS
# How it was run: as §1
# NDR2 = NDR2 (Homo sapiens (Human), UniProt Q9Y2H1); assay: KINATIV assay; format: cell-based; conditions: 1 μM, 90 minutes, BCWM.1 cells
# Chain of NDR2 (Q9Y2H1 whole entry): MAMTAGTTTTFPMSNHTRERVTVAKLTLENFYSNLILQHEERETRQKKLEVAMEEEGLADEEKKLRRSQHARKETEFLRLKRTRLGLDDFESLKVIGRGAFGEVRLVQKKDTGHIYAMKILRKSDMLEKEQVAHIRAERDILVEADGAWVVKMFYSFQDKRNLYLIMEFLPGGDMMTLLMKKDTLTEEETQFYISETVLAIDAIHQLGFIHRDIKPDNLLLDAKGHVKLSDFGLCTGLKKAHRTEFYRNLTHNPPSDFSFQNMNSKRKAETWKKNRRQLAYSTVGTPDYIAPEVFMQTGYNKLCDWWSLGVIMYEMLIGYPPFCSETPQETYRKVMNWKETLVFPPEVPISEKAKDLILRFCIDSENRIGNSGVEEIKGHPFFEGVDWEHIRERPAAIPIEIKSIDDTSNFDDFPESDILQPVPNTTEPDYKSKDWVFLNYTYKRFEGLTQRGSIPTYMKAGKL
# How it was run: as §1
# CHK2 = CHK2 (Homo sapiens (Human), UniProt O96017); assay: KINATIV assay; format: cell-based; conditions: 1 μM, 90 minutes, BCWM.1 cells
# Chain of CHK2 (O96017 whole entry): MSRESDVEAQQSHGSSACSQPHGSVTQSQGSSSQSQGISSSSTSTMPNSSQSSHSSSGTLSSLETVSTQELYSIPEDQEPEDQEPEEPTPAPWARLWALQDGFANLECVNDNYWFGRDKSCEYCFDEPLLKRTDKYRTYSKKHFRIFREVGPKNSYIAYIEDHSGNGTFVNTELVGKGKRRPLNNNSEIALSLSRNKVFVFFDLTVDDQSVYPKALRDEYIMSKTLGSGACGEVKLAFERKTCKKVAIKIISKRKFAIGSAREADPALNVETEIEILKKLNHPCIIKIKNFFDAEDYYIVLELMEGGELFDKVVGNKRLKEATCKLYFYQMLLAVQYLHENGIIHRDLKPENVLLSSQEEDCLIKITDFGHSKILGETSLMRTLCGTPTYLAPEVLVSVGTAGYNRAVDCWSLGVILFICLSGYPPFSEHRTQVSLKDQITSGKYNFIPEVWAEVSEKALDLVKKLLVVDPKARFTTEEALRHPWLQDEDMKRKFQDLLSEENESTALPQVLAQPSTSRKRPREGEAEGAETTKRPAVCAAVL
# How it was run: as §1
# PLK1 = PLK1 (Homo sapiens (Human), UniProt P53350); assay: KINATIV assay; format: cell-based; conditions: 1 μM, 90 minutes, BCWM.1 cells
# How it was run: as §1
# MST3 = MST3 (Homo sapiens (Human), UniProt Q9Y6E0); assay: KINATIV assay; format: cell-based; conditions: 1 μM, 90 minutes, BCWM.1 cells
# Chain of MST3 (Q9Y6E0 whole entry): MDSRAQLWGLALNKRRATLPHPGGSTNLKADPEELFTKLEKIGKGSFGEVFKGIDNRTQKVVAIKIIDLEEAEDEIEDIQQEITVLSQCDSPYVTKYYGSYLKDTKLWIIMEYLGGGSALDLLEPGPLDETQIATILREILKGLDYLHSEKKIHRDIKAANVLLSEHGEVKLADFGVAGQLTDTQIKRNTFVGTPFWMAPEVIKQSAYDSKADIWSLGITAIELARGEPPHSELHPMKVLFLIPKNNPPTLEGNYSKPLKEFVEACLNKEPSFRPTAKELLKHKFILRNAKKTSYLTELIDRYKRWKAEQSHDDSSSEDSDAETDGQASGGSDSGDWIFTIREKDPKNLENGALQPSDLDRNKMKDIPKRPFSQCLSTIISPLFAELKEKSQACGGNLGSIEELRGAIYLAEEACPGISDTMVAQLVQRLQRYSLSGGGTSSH
# How it was run: as §1
# kinases in BCWM.1 cells [7] = biological target: kinases in BCWM.1 cells (Homo sapiens, UniProt Q96BR1); format: cell-based; conditions: SGK3; Lys1; 1 μM, 90 min; GF
# Description: (§2) The cells were harvested and lysed. […] Bound kinases were identified and quantitated by ACTIVX as described in Patricelli et al., Biochemistry, 2007, 46(2): 350-358. The compounds were tested in duplicates against duplicate or quadruplicate control samples.
# kinases in BCWM.1 cells [8] = biological target: kinases in BCWM.1 cells (Homo sapiens, UniProt P48426); format: cell-based; conditions: PIP4K2A; ATP; 1 μM, 90 min; GF
# Description: as §2
# kinases in BCWM.1 cells [9] = biological target: kinases in BCWM.1 cells (Homo sapiens, UniProt P42680); format: cell-based; conditions: TEC; Activation Loop; 1 μM, 90 min; GF
# Description: as §2
# kinases in BCWM.1 cells [10] = biological target: kinases in BCWM.1 cells (Homo sapiens, UniProt Q96S38); format: cell-based; conditions: RSKL1; ATP; 1 μM, 90 min; GF
# Description: as §2
# kinases in BCWM.1 cells [11] = biological target: kinases in BCWM.1 cells (Homo sapiens, UniProt Q9H2G2); format: cell-based; conditions: SLK; Lys2; 1 μM, 90 min; GF
# Description: as §2
# kinases in BCWM.1 cells [12] = biological target: kinases in BCWM.1 cells (Homo sapiens, UniProt Q9NYL2); format: cell-based; conditions: ZAK; Lys1; 1 μM, 90 min; GF
# Description: as §2
# kinases in BCWM.1 cells [13] = biological target: kinases in BCWM.1 cells (Homo sapiens, UniProt Q15418); format: cell-based; conditions: Lys2, 1 μM, 90 min, GF
# Description: as §2
# kinases in BCWM.1 cells [14] = biological target: kinases in BCWM.1 cells (Homo sapiens, UniProt Q9UKE5); format: cell-based; conditions: ZC2/TNIK; Lys1; 1 μM, 90 min; GF
# Description: as §2
# kinases in BCWM.1 cells [15] = biological target: kinases in BCWM.1 cells (Homo sapiens, UniProt P19525); format: cell-based; conditions: PKR; Lys2; 1 μM, 90 min; GF
# Description: as §2
# kinases in BCWM.1 cells [16] = biological target: kinases in BCWM.1 cells (Homo sapiens, UniProt Q16512); format: cell-based; conditions: PKN1; Lys1; 1 μM, 90 min; GF
# Description: as §2
# kinases in BCWM.1 cells [17] = biological target: kinases in BCWM.1 cells (Homo sapiens, UniProt Q86SG6); format: cell-based; conditions: NEK8; Lys2; 1 μM, 90 min; GF
# Description: as §2
smiles,measurement,setting,value
C=CC(=O)N1CC[C@H](Nc2nc(CN3CCOCC3)cc(Nc3ncc(C(=O)Nc4c(C)cccc4C)s3)n2)C1 [Example I-2],percent of control binding remaining (lower = stronger binding),broad panel of kinases [1]; JAK1(JH1domain-catalytic),100%
same,percent of control binding remaining (lower = stronger binding),broad panel of kinases [1]; JAK1(JH2domain-pseudokinase),100%
same,percent of control binding remaining (lower = stronger binding),broad panel of kinases [2],5.8%
same,percent of control binding remaining (lower = stronger binding),broad panel of kinases [3],87%
same,percent of control binding remaining (lower = stronger binding),broad panel of kinases [4],0%
same,percent of control binding remaining (lower = stronger binding),broad panel of kinases [5],65%
same,percent of control binding remaining (lower = stronger binding),broad panel of kinases [6],89%
C=CC(=O)N1CCCCC(Nc2nccc(Nc3ncc(C(=O)Nc4c(C)cccc4C)s3)n2)C1 (stereo not shown) [Example I-7],% change of MS signal compared to control sample,GCK,−12.2% and −4.1%
same,% change of MS signal compared to control sample,FER,−5.8% and −5.3%
same,% change of MS signal compared to control sample,SMG1,21.5%
same,% change of MS signal compared to control sample,MAP2K5,37.6% and 45.7%
C=CC(=O)N1CC[C@@H](Nc2nccc(Nc3ncc(C(=O)Nc4c(C)cccc4C)s3)n2)C1 [Example I-4],% change of MS signal compared to control sample,LOK,−27.4%
same,% change of MS signal compared to control sample,PIK3C3,−14.1% and −5.5%
same,% change of MS signal compared to control sample,CHK1,24.1%
same,% change of MS signal compared to control sample,MAP2K4,−48.8%
same,% change of MS signal compared to control sample,RSK1 domain 1,−62.2% and −53.4%
same,% change of MS signal compared to control sample,MAP2K3,−12.3% and −18.8%
same,% change of MS signal compared to control sample,CDK5,−7.1% and −7.2%
same,% change of MS signal compared to control sample,IRAK4,17.8% and 25.9%
same,% change of MS signal compared to control sample,NDR2,−42.0%
same,% change of MS signal compared to control sample,CHK2,−7.9% and 1.0%
same,% change of MS signal compared to control sample,PLK1,17.4%
C=CC(=O)N1CCC(Cn2ccc(Nc3ncc(C(=O)Nc4c(C)cccc4Cl)s3)n2)C1 (stereo not shown) [II-1],% change of MS signal compared to control sample,LOK,−5.5% and −15.4%
same,% change of MS signal compared to control sample,PIK3C3,−4.7% and −11.6%
same,% change of MS signal compared to control sample,MST3,5.9% and 2.0%
same,% change of MS signal compared to control sample,RSK1 domain 1,−76.3%
same,% change of MS signal compared to control sample,MAP2K3,−19.5% and −15.9%
same,% change of MS signal compared to control sample,CDK5,−11.2% and −8.0%
same,% change of MS signal compared to control sample,IRAK4,15.9% and 18.5%
same,% change of MS signal compared to control sample,PLK1,0.5% and −0.2%
C=CC(=O)N1CCC(CNc2nccc(Nc3ncc(C(=O)Nc4c(C)cccc4C)s3)n2)C1 (racemic) [Example I-8],% change of MS signal compared to control sample,GCK,2.0% and 2.4%
same,% change of MS signal compared to control sample,FER,−7.7% and −4.8%
same,% change of MS signal compared to control sample,SMG1,23.1%
same,% change of MS signal compared to control sample,MST3,−1.5% and −7.7%
same,% change of MS signal compared to control sample,CHK1,15.3% and 24.7%
same,% change of MS signal compared to control sample,MAP2K4,−8.5% and −6.1%
same,% change of MS signal compared to control sample,MAP2K5,19.2% and 30.9%
same,% change of MS signal compared to control sample,NDR2,1.9% and 9.1%
same,% change of MS signal compared to control sample,CHK2,−14.3% and −10.9%
C=CC(=O)N1CC[C@H](Nc2nccc(Nc3ncc(C(=O)Nc4c(C)cccc4C)s3)n2)C1 [Example I-3],percent of control binding remaining (lower = stronger binding),broad panel of kinases [1]; JAK1(JH1domain-catalytic),100%
same,percent of control binding remaining (lower = stronger binding),broad panel of kinases [1]; JAK1(JH2domain-pseudokinase),100%
same,percent of control binding remaining (lower = stronger binding),broad panel of kinases [2],10%
same,percent of control binding remaining (lower = stronger binding),broad panel of kinases [3],91%
same,percent of control binding remaining (lower = stronger binding),broad panel of kinases [4],0.1%
same,percent of control binding remaining (lower = stronger binding),broad panel of kinases [5],67%
same,percent of control binding remaining (lower = stronger binding),broad panel of kinases [6],91%
same,% change of MS signal compared to control sample,kinases in BCWM.1 cells [7],−18.5%
same,% change of MS signal compared to control sample,kinases in BCWM.1 cells [8],−15.2%
same,% change of MS signal compared to control sample,kinases in BCWM.1 cells [9],>91%
same,% change of MS signal compared to control sample,kinases in BCWM.1 cells [10],−25.8%
same,% change of MS signal compared to control sample,kinases in BCWM.1 cells [11],1.6%
same,% change of MS signal compared to control sample,kinases in BCWM.1 cells [12],21.2%
same,% change of MS signal compared to control sample,kinases in BCWM.1 cells [13]; RSK1 domain1,−16.9%
same,% change of MS signal compared to control sample,kinases in BCWM.1 cells [13]; RSK1 domain2,−20.8%
same,% change of MS signal compared to control sample,kinases in BCWM.1 cells [14],32.9%
same,% change of MS signal compared to control sample,kinases in BCWM.1 cells [15],−17.6%
same,% change of MS signal compared to control sample,kinases in BCWM.1 cells [16],−29.4%
same,% change of MS signal compared to control sample,kinases in BCWM.1 cells [17],−14.5%
CCC(=O)N1CC[C@H](Nc2nccc(Nc3ncc(C(=O)Nc4c(C)cccc4C)s3)n2)C1 [Example I-9],% change of MS signal compared to control sample,kinases in BCWM.1 cells [7],−1.1%
same,% change of MS signal compared to control sample,kinases in BCWM.1 cells [8],−8.3%
same,% change of MS signal compared to control sample,kinases in BCWM.1 cells [9],40.8%
same,% change of MS signal compared to control sample,kinases in BCWM.1 cells [10],1.8%
same,% change of MS signal compared to control sample,kinases in BCWM.1 cells [11],4.3%
same,% change of MS signal compared to control sample,kinases in BCWM.1 cells [12],12.1%
same,% change of MS signal compared to control sample,kinases in BCWM.1 cells [13]; RSK1 domain1,−5.1%
same,% change of MS signal compared to control sample,kinases in BCWM.1 cells [13]; RSK1 domain2,−4.1%
same,% change of MS signal compared to control sample,kinases in BCWM.1 cells [14],11.4%
same,% change of MS signal compared to control sample,kinases in BCWM.1 cells [15],−3.8%
same,% change of MS signal compared to control sample,kinases in BCWM.1 cells [16],−0.9%
same,% change of MS signal compared to control sample,kinases in BCWM.1 cells [17],−5.8%
